Results on one molecule are retold here after ChEMBL document CHEMBL5236646, “Design, synthesis, and biological evaluation of BRD4 degraders” (Bioorg Med Chem, 2023).

In experiment [1] the target is T1, Protein cereblon/Bromodomain-containing protein 4 (Homo sapiens) (UniProt O60885+Q96SW2). As to the kind of experiment: Protac activity at CRBN/BRD4 in human MM1.S cells assessed as induction of BRD4 protein degradation by measuring residual activity at 300 nM preincubated with lenalidomide for 2 hrs followed by compound addition and measured after 6 hrs by Western blot analysis (reference value: 100%). It is filed as cell-based. On the technique in general: A western blot detects proteins with antibodies after separation by electrophoresis.
T1 sequence (Q96SW2 whole entry, looked up, other chains not shown): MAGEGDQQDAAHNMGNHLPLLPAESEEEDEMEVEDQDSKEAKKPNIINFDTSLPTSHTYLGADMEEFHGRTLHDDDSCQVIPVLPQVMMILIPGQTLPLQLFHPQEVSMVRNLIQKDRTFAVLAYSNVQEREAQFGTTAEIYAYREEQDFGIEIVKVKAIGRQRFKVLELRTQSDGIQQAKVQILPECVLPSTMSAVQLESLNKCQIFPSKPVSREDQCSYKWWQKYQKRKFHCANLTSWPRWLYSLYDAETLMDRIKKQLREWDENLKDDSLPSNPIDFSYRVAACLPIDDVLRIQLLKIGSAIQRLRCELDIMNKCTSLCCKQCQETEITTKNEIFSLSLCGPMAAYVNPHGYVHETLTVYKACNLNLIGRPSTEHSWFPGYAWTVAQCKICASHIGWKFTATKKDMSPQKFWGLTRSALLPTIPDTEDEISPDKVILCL

The test system of experiment [2] is MRC5. As to the kind of experiment: Inhibition of TGF-beta induced activation of human MRC5 cells assessed as downregulation of COL-1 protein expression at 0.1 to 10 uM by Western blot analysis. The experiment is classed as functional, cell-based. Particulars: dose 0.1-10 µM.
The target in experiment [3] is T1, Protein cereblon/Bromodomain-containing protein 4 (Homo sapiens). As to the kind of experiment: Protac activity at CRBN/BRD4 in human MM1.S cells assessed as downregulation of MYC protein expression at […] incubated for 3 hrs by Western blot analysis. The experiment is classed as cell-based.
Experiment [4] has as its system MRC5. As to the kind of experiment: Inhibition of TGF-beta induced activation of human MRC5 cells assessed as downregulation of alpha-SMA protein expression at 0.1 to 10 uM by Western blot analysis. It is filed as functional, cell-based. The following applies: dose 0.1-10 µM.
Experiment [5] addresses T1, Protein cereblon/Bromodomain-containing protein 4 (Homo sapiens). As to the kind of experiment: Protac activity at CRBN/BRD4 in human MM1.S cells assessed as induction of BRD4 protein degradation by measuring residual activity at 1000 nM measured after 6 hrs by Western blot analysis (reference value: 100%). The experiment is classed as cell-based.
Experiment [6] has the same target. As to the kind of experiment: Protac activity at CRBN/BRD4 in human MM1.S cells assessed as induction of BRD4 protein degradation by measuring residual activity at 30 nM measured after 6 hrs by Western blot analysis (reference value: 100%). It is filed as cell-based.
Experiment [7] shares this target. As to the kind of experiment: Protac activity at CRBN/BRD4 in human MV4-11 cells assessed as induction of BRD4 protein degradation by measuring residual activity at 30 nM measured after 9 hrs by Western blot analysis (reference value: 100%). It is filed as cell-based.
For experiment [8] the target is unchanged. As to the kind of experiment: Protac activity at CRBN/BRD4 in human MV4-11 cells assessed as induction of BRD4 protein degradation by measuring residual activity at 30 nM preincubated with lenalidomide for 2 hrs followed by compound addition and measured after 6 hrs by Western blot analysis (reference value: 100%). It is filed as cell-based.
Experiment [9] has the same target. As to the kind of experiment: Protac activity at CRBN/BRD4 in human MV4-11 cells assessed as induction of BRD4 protein degradation by measuring residual activity at 30 nM preincubated with tert-butyl (S)-2-(4-(4-chlorophenyl)-2,3,9-trimethyl-6H-thieno[3,2-f][1,2,4]triazolo[4,3-a][1,4]diazepin-6-yl)acetate for 2 hrs followed by compound addition and measured after 6 hrs by Western blot analysis (reference value: 100%). It is filed as cell-based.

Experiment [10] has the same target. As to the kind of experiment: Protac activity at CRBN/BRD4 in human MV4-11 cells assessed as induction of BRD4 protein degradation by measuring residual activity at 30 nM measured after 1 hr by Western blot analysis (reference value: 100%). It is filed as cell-based.
For experiment [11] the target is unchanged. As to the kind of experiment: Protac activity at CRBN/BRD4 in human MV4-11 cells assessed as downregulation of MYC protein expression at 30 uM incubated for 3 hrs by Western blot analysis. The experiment is classed as cell-based.

Active and inactive are the calls of the source. The rule behind the calls is not given here.

As for `Cc1sc2c(c1C)C(c1ccc(Cl)cc1)=N[C@@H](CC(=O)NCCCCC(=O)NCCNc1cccc3c1C(=O)N(C1CCC(=O)NC1=O)C3=O)c1nnc(C)n1-2` (stereo partly specified), the Activity in experiment [1] turned out to be 67%; in experiment [5] it was 10%; in experiment [6], 42%; in experiment [7] it was 49%; in [8], 85%; in experiment [9], 84%. For the same molecule, the Activity in [10] was 62%. Further, the inhibition result with MRC5 [2] and in the experiment with MRC5 [4] was “Active” each time. Also, the outcome in experiment [3] was inactive. Further, the result in [11] was Active.
